According to patent publication US10259781B2, “Imaging agents” (THE REGENTS OF THE UNIVERSITY OF MICHIGAN, priority 2012, dated 2019):
Entries after “also recorded” stand apart in the source; their conditions may differ.

Tests used:
[1] = In vitro incubation with monkey liver cytosol fraction and PAPS (sulfur conjugation); type: in vitro ADME
Protocol: The main radiometabolite formed is more polar than the parent compound, [^18F]4-MHPG. The metabolite has been identified as the sulfur conjugate of [^18F]4-MHPG based on in vitro incubations of the parent compound with a monkey liver cytosol fraction and the required cofactor 3′-phospho-adenosine-5′phosphosulfate (PAPS). After only 1 minute of in vitro incubation, approximately 70% of [^18F]4-MHPG was sulfur conjugated, and after 20 minutes of incubation, 100% was in the sulfur-conjugated form (FIG. 4B). Sulfur conjugation occurs at the meta-hydroxyl group (FIG. 4C). Without being bound by theory and without requiring an understanding of the mechanism to practice the technology, it is contemplated that rapid metabolism of [^18F]4F-MHPG is a reason for its low liver uptake. In comparison, the structurally similar carbon-11 compound, [^11C]guanyl-meta-octopamine (GMO), has a slower metabolic breakdown in monkey plasma, with a T1/2 for breakdown of approximately 13 minutes.

[2] = Metabolic breakdown in monkey plasma (reverse-phase HPLC of venous blood samples); type: in vivo, rhesus macaque monkey; settings: rhesus monkeys
Protocol: In some of the microPET studies, venous blood samples (e.g., n=6) were drawn to assess the metabolic breakdown of [^18F]4F-MHPG in plasma (see Table 1). Plasma was processed for injection onto a reverse-phase HPLC system equipped with a radiation detector. The percentages of intact parent tracer and radiolabeled metabolites were determined as a function of time. In this system, [^18F]4-MHPG has a retention time Rt of approximately 11.2 minutes while the main polar radiometabolite formed has an Rt of approximately 7.9 minutes.

Biodistribution in rats = type: in vivo, rat; settings: for Biodistribution, Ovary / Biodistribution, Testes / Biodistribution, Uterus: n = 2
Protocol: During the development of embodiments of the technology, data were collected from bioevaluation studies of [^18F]4F-MHPG. […]
(§1) During the development of embodiments of the technology provided herein, the biodistribution of [^18F]4F-MHPG into the organs of rats was assessed. In particular, four time points (Table 3) were collected and used to derive human radiation absorbed dose estimates using the OLINDA/EXM 1.0 software package (see, e.g., Stabin et al. (2005) “OLINDA/EXM; the second-generation personal computer software for internal dose assessment in nuclear medicine”, J Nucl Med. 46: 1023-7). […] These values were entered into the Dynamic Bladder model of OLINDA/EXM, assuming a 4.0-hour void interval. Organs with the highest absorbed dose estimates included the urinary bladder wall (0.666 rad/mCi), […] (0.221 rad/mCi), small intestine (0.201 rad/mCi), and the heart wall (0.201 rad/mCi). An ‘effective dose’ of 0.091 rem/mCi was estimated for [^18F]4F-MHPG. Under United States Federal Regulations governing research with a new radiopharmaceutical (21 CFR § 361.1), the maximum allowable radiation absorbed dose to an individual organ (other than the gonads) is 5 rad. Considering the maximum estimated absorbed dose (urinary bladder wall; 0.666 rad/mCi), initial PET studies in human subjects could use a maximum of 7.5 mCi of [^18F]4F-MHPG. This would correspond to an ‘effective dose’ of 0.68 rem.

[3] = MicroPET imaging studies in rats: excretion through the bladder; type: in vivo, rat
Protocol: as §1

[4] = target: T1, norepinephrine transporters (NET) (Macaca mulatta, UniProt Q9MYW8); assay: Desipramine (DMI) block of the neuronal uptake of [18F]4F-MHPG, microPET; type: in vivo, rhesus macaque monkey
T1 construct: from tissue; host or cells: heart (presynaptic sympathetic nerve terminals) of living rhesus macaque monkeys, microPET in vivo
T1 sequence (Q9MYW8 1-617): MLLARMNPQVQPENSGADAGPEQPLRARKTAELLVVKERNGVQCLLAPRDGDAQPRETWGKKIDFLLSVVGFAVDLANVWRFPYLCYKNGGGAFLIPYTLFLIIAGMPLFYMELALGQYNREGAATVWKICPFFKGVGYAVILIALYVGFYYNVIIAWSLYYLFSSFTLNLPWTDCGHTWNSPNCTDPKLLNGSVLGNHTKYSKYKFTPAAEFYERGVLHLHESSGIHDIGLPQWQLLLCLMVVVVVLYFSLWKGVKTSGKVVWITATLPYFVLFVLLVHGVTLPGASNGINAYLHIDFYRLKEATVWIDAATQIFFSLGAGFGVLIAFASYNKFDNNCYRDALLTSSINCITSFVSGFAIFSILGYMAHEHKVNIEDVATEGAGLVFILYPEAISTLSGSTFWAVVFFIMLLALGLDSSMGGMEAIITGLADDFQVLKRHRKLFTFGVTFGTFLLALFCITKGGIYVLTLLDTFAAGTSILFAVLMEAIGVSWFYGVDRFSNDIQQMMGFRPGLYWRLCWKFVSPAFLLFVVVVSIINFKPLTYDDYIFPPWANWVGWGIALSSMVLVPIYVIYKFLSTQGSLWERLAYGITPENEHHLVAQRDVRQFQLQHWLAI
Source text: Additional data were collected and Patlak analyses performed.
Orthogonal slice images were acquired for comparison with data from a control study.

[5] = 30 minutes after injection, n=5

N=C(N)NCCc1ccc(F)c(O)c1 [[^18F]4F-MHPG] [4-[^18F]fluoro-meta-hydroxy-phenethylguanidine]
fraction sulfur conjugated ([1]; after 1 minute of in vitro incubation): approximately 70%
fraction in the sulfur-conjugated form ([1]; after 20 minutes of incubation): 100%
metabolism in plasma [2]: rapidly metabolized
maximum percentage of the injected dose observed in the gastrointestinal tract (Biodistribution in rats): 12.6%
Biodistribution, Adrenal (Biodistribution in rats; 5 min): 0.203 ± 0.083 % ID · kg/g
Biodistribution, Blood (Biodistribution in rats; 5 min): 0.062 ± 0.004 % ID/g
Biodistribution, Bone (Biodistribution in rats; 5 min): 0.060 ± 0.015 % ID/g
Biodistribution, Brain (Biodistribution in rats; 5 min): 0.004 ± 0.001 % ID · kg/g
Biodistribution, Eyeballs (Biodistribution in rats; 5 min): 0.039 ± 0.006 % ID · kg/g
Biodistribution, Heart (Biodistribution in rats; 5 min): 0.746 ± 0.067 % ID · kg/g
Biodistribution, Kidney (Biodistribution in rats; 5 min): 1.398 ± 0.530 % ID · kg/g
Biodistribution, Liver (Biodistribution in rats; 5 min): 0.477 ± 0.110 % ID · kg/g
Biodistribution, Lung (Biodistribution in rats; 5 min): 0.267 ± 0.045 % ID · kg/g
Biodistribution, Muscle (Biodistribution in rats; 5 min): 0.019 ± 0.005 % ID/g
Biodistribution, Pancreas (Biodistribution in rats; 5 min): 0.137 ± 0.024 % ID · kg/g
Biodistribution, Spleen (Biodistribution in rats; 5 min): 0.268 ± 0.044 % ID · kg/g
Biodistribution, Stomach (Biodistribution in rats; 5 min): 0.116 ± 0.021 % ID · kg/g
Biodistribution, Ovary (Biodistribution in rats; 5 min): 0.194 ± 0.048 % ID · kg/g
Biodistribution, Testes (Biodistribution in rats; 5 min): 0.018 ± 0.002 % ID · kg/g
Biodistribution, Uterus (Biodistribution in rats; 5 min): 0.268 ± 0.044 % ID · kg/g
Biodistribution, Adrenal (Biodistribution in rats; 30 min): 0.181 ± 0.069 % ID · kg/g
Biodistribution, Blood (Biodistribution in rats; 30 min): 0.022 ± 0.003 % ID/g
Biodistribution, Bone (Biodistribution in rats; 30 min): 0.039 ± 0.015 % ID/g
Biodistribution, Brain (Biodistribution in rats; 30 min): 0.003 ± 0.000 % ID · kg/g
Biodistribution, Eyeballs (Biodistribution in rats; 30 min): 0.040 ± 0.004 % ID · kg/g
Biodistribution, Heart (Biodistribution in rats; 30 min): 0.602 ± 0.111 % ID · kg/g
Biodistribution, Kidney (Biodistribution in rats; 30 min): 0.183 ± 0.055 % ID · kg/g
Biodistribution, Liver (Biodistribution in rats; 30 min): 0.406 ± 0.071 % ID · kg/g
Biodistribution, Lung (Biodistribution in rats; 30 min): 0.136 ± 0.032 % ID · kg/g
Biodistribution, Muscle (Biodistribution in rats; 30 min): 0.025 ± 0.011 % ID/g
Biodistribution, Pancreas (Biodistribution in rats; 30 min): 0.145 ± 0.021 % ID · kg/g
Biodistribution, Spleen (Biodistribution in rats; 30 min): 0.262 ± 0.055 % ID · kg/g
Biodistribution, Stomach (Biodistribution in rats; 30 min): 0.110 ± 0.004 % ID · kg/g
Biodistribution, Ovary (Biodistribution in rats; 30 min): 0.171 ± 0.020 % ID · kg/g
Biodistribution, Testes (Biodistribution in rats; 30 min): 0.010 ± 0.001 % ID · kg/g
Biodistribution, Uterus (Biodistribution in rats; 30 min): 0.155 ± 0.001 % ID · kg/g
tissue concentration, adrenal medulla (Biodistribution in rats; [5]): 0.54 ± 0.08 percentage of the injected dose per gram
tissue concentration, blood (Biodistribution in rats; [5]): 0.07 ± 0.01 percentage of the injected dose per gram
tissue concentration, left ventricle (Biodistribution in rats; [5]): 1.45 ± 0.13 percentage of the injected dose per gram
tissue concentration, liver (Biodistribution in rats; [5]): 1.14 ± 0.16 percentage of the injected dose per gram
tissue concentration, lung (Biodistribution in rats; [5]): 0.43 ± 0.08 percentage of the injected dose per gram
tissue concentration, muscle (Biodistribution in rats; [5]): 0.07 ± 0.01 percentage of the injected dose per gram
tissue concentration, spleen (Biodistribution in rats; [5]): 0.56 ± 0.10 percentage of the injected dose per gram
Biodistribution, Adrenal (Biodistribution in rats; 60 min): 0.193 ± 0.053 % ID · kg/g
Biodistribution, Blood (Biodistribution in rats; 60 min): 0.016 ± 0.002 % ID/g
Biodistribution, Bone (Biodistribution in rats; 60 min): 0.027 ± 0.009 % ID/g
Biodistribution, Brain (Biodistribution in rats; 60 min): 0.002 ± 0.000 % ID · kg/g
Biodistribution, Eyeballs (Biodistribution in rats; 60 min): 0.041 ± 0.006 % ID · kg/g
Biodistribution, Heart (Biodistribution in rats; 60 min): 0.526 ± 0.116 % ID · kg/g
Biodistribution, Kidney (Biodistribution in rats; 60 min): 0.186 ± 0.090 % ID · kg/g
Biodistribution, Liver (Biodistribution in rats; 60 min): 0.350 ± 0.077 % ID · kg/g
Biodistribution, Lung (Biodistribution in rats; 60 min): 0.091 ± 0.015 % ID · kg/g
Biodistribution, Muscle (Biodistribution in rats; 60 min): 0.016 ± 0.002 % ID/g
Biodistribution, Pancreas (Biodistribution in rats; 60 min): 0.172 ± 0.042 % ID · kg/g
Biodistribution, Spleen (Biodistribution in rats; 60 min): 0.253 ± 0.054 % ID · kg/g
Biodistribution, Stomach (Biodistribution in rats; 60 min): 0.115 ± 0.029 % ID · kg/g
Biodistribution, Ovary (Biodistribution in rats; 60 min): 0.142 ± 0.052 % ID · kg/g
Biodistribution, Testes (Biodistribution in rats; 60 min): 0.008 ± 0.003 % ID · kg/g
Biodistribution, Uterus (Biodistribution in rats; 60 min): 0.112 ± 0.046 % ID · kg/g
Biodistribution, Adrenal (Biodistribution in rats; 120 min): 0.133 ± 0.021 % ID · kg/g
Biodistribution, Blood (Biodistribution in rats; 120 min): 0.009 ± 0.001 % ID/g
Biodistribution, Bone (Biodistribution in rats; 120 min): 0.016 ± 0.005 % ID/g
Biodistribution, Brain (Biodistribution in rats; 120 min): 0.001 ± 0.001 % ID · kg/g
Biodistribution, Eyeballs (Biodistribution in rats; 120 min): 0.026 ± 0.006 % ID · kg/g
Biodistribution, Heart (Biodistribution in rats; 120 min): 0.347 ± 0.055 % ID · kg/g
Biodistribution, Kidney (Biodistribution in rats; 120 min): 0.078 ± 0.024 % ID · kg/g
Biodistribution, Liver (Biodistribution in rats; 120 min): 0.233 ± 0.049 % ID · kg/g
Biodistribution, Lung (Biodistribution in rats; 120 min): 0.036 ± 0.006 % ID · kg/g
Biodistribution, Muscle (Biodistribution in rats; 120 min): 0.015 ± 0.002 % ID/g
Biodistribution, Pancreas (Biodistribution in rats; 120 min): 0.121 ± 0.016 % ID · kg/g
Biodistribution, Spleen (Biodistribution in rats; 120 min): 0.235 ± 0.066 % ID · kg/g
Biodistribution, Stomach (Biodistribution in rats; 120 min): 0.089 ± 0.019 % ID · kg/g
Biodistribution, Ovary (Biodistribution in rats; 120 min): 0.129 ± 0.029 % ID · kg/g
Biodistribution, Testes (Biodistribution in rats; 120 min): 0.004 ± 0.001 % ID · kg/g
Biodistribution, Uterus (Biodistribution in rats; 120 min): 0.081 ± 0.006 % ID · kg/g
biological half-time of excretion through the bladder [3]: 0.20±0.02 hours
injected dose excreted through the bladder [3]: 19.9±0.2%
specificity of myocardial uptake for cardiac sympathetic neurons ([4]; control vs DMI block): 100%
nonspecific binding in heart tissue ([4]; highest dose DMI block study): very low; also recorded: extremely low
